The subject of series [1] is primary macrophages (BMDMs). The series can be described thus: Cytokine and chemokine protein levels in macrophage supernatants (MILLIPLEX multiplex, IL-6 ELISA). The format is cell-based, mouse. The note with it: for abnormally increased levels of IL-1β / abnormally increased levels of IL-6 / abnormally increased levels of MCP-1 / abnormally increased levels of TNF-α: macrophages exposed to PLA extract plus inhibitor. How it is done:
Cytokine and chemokine levels were measured using a MILLIPLEX MAP mouse magnetic bead multiplex kit (MilliporeSigma) to assess for IL-6, MCP-1, TNF-a, IL-1b, IL-4, IL-10, IFN-1 and 1L-13 protein expression in supernatants. Data was acquired using Luminex 200 (Luminex Corporation) by the xPONENT software (Version 3.1, Luminex Corporation). […] For statistical analyses, those values were expressed as 3.1 pg/mL. Values exceeding the dynamic range of the assay, in accordance with manufacturer's instruction, were excluded. Additionally, IL-6 ELISA kits (RayBiotech) for supernatants were used according to manufacturer's instructions.
For orientation: ELISA stands for enzyme-linked immunosorbent assay.

Series [2] relates to primary BMDMs. The series is described as follows: Seahorse assays (OCR, ECAR, PER) in primary BMDMs. Type of series: cell-based, mouse. The note with it: for metabolic reprogramming: BMDMs exposed to amorphous or crystalline PLA extract, dose-dependent; for ECAR / OCR / PER: Example 2, BMDMs exposed to PLA extracts of varied stereochemistries plus inhibitor. From the text: To determine the metabolic pathways responsible for the observed bioenergetic changes, Seahorse assays were used to measure oxygen consumption rate (OCR), extracellular acidification rate (ECAR) and lactate-linked proton efflux rate (PER) in a customized medium (pH 7.4). Basal measurements of OCR, ECAR, and PER were obtained in real time using the Seahorse XFe-96 Extracellular Flux Analyzer (Agilent Technologies). Prior to running the assay, cell culture medium was washed with and replaced by the Seahorse XF DMEM medium (pH 7.4) supplemented with 25 mM D-glucose and 4 mM glutamine. The Seahorse plates were equilibrated in a non-CO2 incubator for an hour prior to the assay. The Seahorse ATP rate and cell energy phenotype assays were run according to manufacturer's instruction and all reagents for the Seahorse assays were sourced from Agilent Technologies. Wave software (Version 2.6.1) was used to export Seahorse data directly as means±standard deviation (SD).
Seahorse assays measures ECAR as an index of glycolytic flux, OCR as an index of oxidative phosphorylation and PER as an index of monocarboxylate transporter function in live cells; and are used to assess for metabolic reprogramming. Primary BMDMs exposed to amorphous PLA extract were metabolically altered, showing a 2-fold increase in oxidative phosphorylation (OCR; FIG. 10), 3.5-fold increase in glycolytic flux (ECAR; FIG. 11) and 3.5-fold increase in monocarboxylate transporter activity (PER; FIG. 12) in comparison to untreated BMDMs.

Series [3] has as its system primary BMDMs. The series can be described thus: Crystal violet cell viability / cell number assay in primary BMDMs. Type of series: cell-based, mouse. The note with it: BMDMs treated with amorphous or crystalline PLA extract. How it is done: Breakdown products of PLA (hereafter “extracts”) were generated in serum-containing media and used after twelve days of incubation in a shaker at 37° C. […] Immune cells were maintained in the PLA extracts for twelve days. BMDMs derived from C57BL/6J mice (Jackson Laboratories) of 3-4 months were used. Mouse embryonic fibroblasts (NIH 3T3 cells, hereafter “MEFs”) were stably transfected with a Sleeping Beauty transposon plasmid (pLuBIG) encoding blasticidin resistance linked to eGFP, and luciferase. Bioluminescence of the fibroblasts served as in indicator of ATP levels. Cell viability was measured using the crystal violet staining assay at room temperature. 50 μL media containing cells is incubated with 150 μL of 99.9% methanol for 15 minutes. 100 μL of 0.5% crystal violet (25% methanol) is added for 20 minutes. Each well is emptied and washed twice with 200 μL phosphate buffered saline for 2 minutes. Absorbance (optical density) was acquired at 570 nm using the SpectraMax M3 Spectrophotometer (Molecular Devices) and SoftMax Pro software (ver. 7.0.2).

Series [4] has as its system Mouse embryonic fibroblasts (NIH 3T3 cells). The series is described as follows: ATP levels in MEFs (luciferase bioluminescence in live cells; standard ATP assay on lysates). Type of series: cell-based. As to conditions: for Total ATP levels in MEFs: MEFs exposed to each of PLLA, PDLA and stereocomplex PLA extracts plus inhibitor; for increased bioenergetic (ATP) levels: amorphous or crystalline PLA extract-treated fibroblasts plus inhibitor, spatiotemporal and dose-dependent. As for the experimental part: Breakdown products of PLA (hereafter “extracts”) were generated in serum-containing media and used after twelve days of incubation in a shaker at 37° C. The in vitro degradation mimics PLA degradation in vivo. Immune cells were maintained in the PLA extracts for twelve days. BMDMs derived from C57BL/6J mice (Jackson Laboratories) of 3-4 months were used. Mouse embryonic fibroblasts (NIH 3T3 cells, hereafter “MEFs”) were stably transfected with a Sleeping Beauty transposon plasmid (pLuBIG) encoding blasticidin resistance linked to eGFP, and luciferase. Bioluminescence of the fibroblasts served as in indicator of ATP levels. Cell viability was measured using the crystal violet staining assay at room temperature. 50 μL media containing cells is incubated with 150 μL of 99.9% methanol for 15 minutes. 100 μL of 0.5% crystal violet (25% methanol) is added for 20 minutes. Each well is emptied and washed twice with 200 μL phosphate buffered saline for 2 minutes. Absorbance (optical density) was acquired at 570 nm using the SpectraMax M3 Spectrophotometer (Molecular Devices) and SoftMax Pro software (ver. 7.0.2).
To exclude the possibility that changing luciferase expression (by transcription or translation) was responsible for observed bioenergetic changes, wild-type cells were lysed after exposure to PLA extract. Controlled amounts of luciferase and D-luciferin were added to the standard ATP assay. By day 12, there was a 1.9-and 2.3-fold increase in ATP levels among cells exposed to crystalline and amorphous PLA extract, respectively (FIG. 2). To exclude the possibility that PLA extracts affect the biochemical reaction underlying bioenergetic measurements, lysed fibroblasts were exposed to D-luciferin, luciferase and control or PLA extract.
ATP levels in live cells were assessed by bioluminescence on the IVIS Spectrum in vivo imaging system (PerkinElmer) after addition of 150 μg/mL D-luciferin (PerkinElmer). For lysed cells, the standard ATP/ADP kits (Sigma-Aldrich) were used according to manufacturer's instructions.

Series [5] can be described thus: In-vitro studies indicating effective concentration of 2DG. The format is cell-based. As for the experimental part: Amorphous PLA was compounded with 2DG at 190° C. for 3 mins in a DSM 15 cc mini-extruder (DSM Xplore) and pelletizer (Leistritz Extrusion Technology). Our in-vitro studies indicate 1 mM 2DG to be an effective concentration. Accordingly, we estimated that 18 mg of 2DG in 10 g of amorphous PLA will approximate effective concentrations after accounting for potential thermal degradation of 2DG, converting mM to w/w values. […] To exclude the effect of melt-blending as a confounder in our studies, amorphous PLA controls were processed under the same thermal conditions to make “reprocessed” amorphous PLA. Pellets from melt-blending were made into 1.75 mm diameter filaments using an extruder (Filabot EX2) at 170° C. with air set at 93. For surgical implantation, amorphous PLA filaments were cut into 1 mm lengths; four biomaterials were subcutaneously implanted on the dorsum (back) of each mouse, with two cranially (2.5 cm apart) and two caudally (2.5 cm apart).

The mark [6] stands for this setting: macrophages exposed to the PLLA and PDLA extracts plus inhibitor.
[7] abbreviates: BMDMs, prolonged (day 7) exposure to L-lactic acid.

Molecules are shown by their SMILES. Some results are limits rather than exact numbers.

On to `O=CC[C@@H](O)[C@H](O)[C@H](O)CO` [2DG, 2-deoxyglucose], for which, in series [1], the “abnormally increased levels of IL-1β” value is recorded as “modulated”, the “abnormally increased levels of IL-6” value is listed as “modulated”, the “abnormally increased levels of MCP-1” value was “modulated” and the “abnormally increased levels of TNF-α” value is “modulated”. Also, the IL-10 levels entry in series [1] (setting [6]) is listed as “increased”. For the same molecule, in the series with primary BMDMs [2], the metabolic reprogramming entry is recorded as “inhibited”, the ECAR result is on record as “dose-dependent decrease”, the OCR entry is on record as “dose-dependent decrease” and the PER result was “dose-dependent decrease”. In addition, in the series with primary BMDMs [3], the cell viability result was “selectively reduced”. Besides, in series [4], the “Total ATP levels in MEFs” value was “decreased” and the “increased bioenergetic (ATP) levels” value is reported as “inhibited”. Further, the effective concentration in series [5] was 1 mM.

Consider `O=C(C=Cc1cccnc1)c1ccncc1` [3PO, 3-(3-pyridinyl)-1-(4-pyridinyl)-2-propen-1-one], for which the cytokine values in series [1] (in some experiments) was less than 3.2 pg/mL. For the same molecule, in series [1], the “abnormally increased levels of IL-1β” value is reported as “modulated”, the “abnormally increased levels of IL-6” value was “modulated”, the “abnormally increased levels of MCP-1” value was “modulated” and the “abnormally increased levels of TNF-α” value was “modulated”. For the same molecule, in the series with primary BMDMs [2], the metabolic reprogramming entry was “inhibited”, the ECAR entry is reported as “dose-dependent decrease”, the OCR entry is “dose-dependent decrease” and the PER entry is given as “dose-dependent decrease”. Further, the cell viability result in the series on primary BMDMs [3] is given as “selectively reduced”. For the same molecule, in series [4], the “Total ATP levels in MEFs” value is recorded as “decreased” and the “increased bioenergetic (ATP) levels” value is recorded as “inhibited”.

Take `C[C@H](O)C(=O)O` [L-lactic acid]: the “increase in IL-6 protein expression” value in series [1] (compared to untreated macrophages) stood at 2.3 fold. In addition, in the series with primary BMDMs [2] (setting [7]), the “increase in glycolytic flux (ECAR)” value worked out at 2.8 fold, the “increase in monocarboxylate transporter function (PER)” value is 2.8 fold and the “increase in oxidative phosphorylation (OCR)” value came out at 2.3 fold.

As for `NOCC(=O)O` [aminooxyacetic acid], in series [1] (amorphous PLA extract plus inhibitor, relative to macrophages exposed to PLA extract), the “increase in IL-10 expression” value worked out at 3.4 fold. For the same molecule, the IL-10 expression entry in series [1] (crystalline PLA extract plus inhibitor, relative to macrophages exposed to PLA extract) is on record as “unchanged”. For the same molecule, in series [1], the “abnormally increased levels of IL-1β” value is recorded as “modulated”, the “abnormally increased levels of IL-6” value is recorded as “modulated”, the “abnormally increased levels of MCP-1” value is reported as “modulated” and the “abnormally increased levels of TNF-α” value is reported as “modulated”. The IL-10 levels entry in series [1] (setting [6]) was “increased”. For the same molecule, the IL-10 levels result in series [1] (macrophages treated with stereocomplex PLA extracts plus inhibitor) was “further increased”. For the same molecule, in the series on primary BMDMs [2], the metabolic reprogramming result is given as “inhibited”, the ECAR entry is on record as “dose-dependent decrease”, the OCR entry is listed as “dose-dependent decrease” and the PER entry is “dose-dependent decrease”. In addition, the cell viability result in the series with primary BMDMs [3] is listed as “selectively reduced”. Further, in series [4], the “Total ATP levels in MEFs” value was “decreased” and the “increased bioenergetic (ATP) levels” value is “inhibited”.

For the origin of these results see patent US20250135072A1, “COMPOSITIONS COMPRISING A BIOABSORBABLE POLYMER AND METABOLIC INHIBITOR” (Board of Trustees of Michigan State University, priority 2022, published 2025).
